In US7705030B2, “Amino-5-(5-membered)hetero-arylimidazolone compounds and the use thereof for β-secretase modulation” (Wyeth LLC, priority 2005, dated 2010):
pIC50: −log10 of the molar value.

These molecules were tested against human BACE1 (Homo sapiens, UniProt P56817) (assay: Fluorescent kinetic assay: Evaluation of BACE-1 Binding Affinity of Test Compounds). Details: 10 nM enzyme, 25 μM substrate WABC-6, 50 mM Na-Acetate pH 4.5, room temperature.
Chain of human BACE1 (P56817 46-501): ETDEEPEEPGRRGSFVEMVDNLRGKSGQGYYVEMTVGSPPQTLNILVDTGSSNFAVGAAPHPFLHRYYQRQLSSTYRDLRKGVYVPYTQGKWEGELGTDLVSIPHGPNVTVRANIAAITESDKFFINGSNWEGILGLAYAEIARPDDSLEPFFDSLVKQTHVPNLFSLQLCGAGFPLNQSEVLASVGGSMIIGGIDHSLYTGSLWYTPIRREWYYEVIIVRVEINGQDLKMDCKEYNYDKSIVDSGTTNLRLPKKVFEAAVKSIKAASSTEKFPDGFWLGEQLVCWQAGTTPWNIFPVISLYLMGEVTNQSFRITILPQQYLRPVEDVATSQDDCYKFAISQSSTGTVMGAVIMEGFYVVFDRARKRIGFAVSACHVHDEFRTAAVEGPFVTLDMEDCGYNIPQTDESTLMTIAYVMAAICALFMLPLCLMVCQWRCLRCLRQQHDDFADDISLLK
Type: biochemical
Procedure: Evaluation of BACE-1 Binding Affinity of Test Compounds
Fluorescent Kinetic Assays
Final Assay Conditions: 10 nM human BACE1 (or 10 nM Murine BACE1, 1.5 nM human BACE2), 25 μM substrate (WABC-6, MW 1549.6, from AnaSpec), Buffer: 50 mM Na-Acetate, pH 4.5, 0.05% CHAPS, 25% PBS, room temperature. Na-Acetate was from Aldrich, Cat.# 24, 124-5, CHAPS was from Research Organics, Cat. # 1304C 1×, PBS was from Mediatech (Cellgro), Cat# 21-031-CV, peptide substrate Abz[…]pa was from AnaSpec, Peptide Name: WABC-6 Determination of stock substrate (Abz[…]pa) concentration: ˜25 mM stock solution is made in DMSO using the peptide weight and MW, and diluted to ˜25 μM (1:1000) in 1×PBS. Concentration is determined by absorbance at 354 nm using an extinction coefficient ε of 18172 M^−1 cm^−1, the concentration of stock substrate is corrected, and the substrate stock stored in small aliquots in −80° C. [Substrate Stock]=ABS^354 nm*10^6/18172 (in […]) The extinction coefficient ε^354 nm was adapted from TACE peptide substrate, which had the same quencher-fluorophore pair.
Determination of Stock Enzyme Concentration: the stock concentration of each enzyme is determined by absorbance at 280 nm using an ε of 64150 M^−1 cm^−1 for hBACE1 and MuBACE1, 62870 M^−1 cm^−1 for hBACE2 in 6 M Guanidinium Hydrochloride (from Research Organics, Cat. # 5134G-2), pH ˜6. The extinction coefficient ε^280 nm for each enzyme was calculated based on known amino acid composition and published extinction coefficients for Trp ([…]) and Tyr ([…]) residues (Anal. Biochem. 182, 319-326).
Dilution and mixing steps: total reaction volume: 100 μL
2× inhibitor dilutions in buffer A(66.7 mM Na-Acetate, pH 4.5, 0.0667% CHAPS) were prepared,
4× enzyme dilution in buffer A(66.7 mM Na-Acetate, pH 4.5, 0.0667% CHAPS) were prepared,
100 μM substrate dilution in 1×PBS was prepared, and
50 μL 2× Inhibitor, 25 μL 100 μM substrate are added to each well of 96-well plate (from DYNEX Technologies, VWR #: 11311-046), immediately followed by 25 μL 4× enzyme (added to the inhibitor and substrate mix), and the fluorescence readings are initiated.
Fluorescence Readings: Readings at λex 320 nm and λem 420 nm are taken every 40 sec for 30 min at room temperature and the linear slope for substrate cleavage rate (vi) determined.
Testing at least 10 different inhibitor concentrations is preferred.
In the case of `CCC(=O)c1cc([C@]2(c3cccc(-c4cc(F)cnc4F)c3)N=C(N)N(C)C2=O)cn1CCF` [242 A], the pIC50 was 7.00 to 8.00. With `CCC(=O)c1cc([C@@]2(c3cccc(-c4cc(F)cnc4F)c3)N=C(N)N(C)C2=O)cn1CCF` [242 B] the pIC50 was < 6.00. In the case of `CCn1cc([C@]2(c3cccc(-c4cccnc4F)c3)N=C(N)N(C)C2=O)cc1C(=O)C1CC1` [243 A], the pIC50 was 7.00 to 8.00. For `CCn1cc([C@@]2(c3cccc(-c4cccnc4F)c3)N=C(N)N(C)C2=O)cc1C(=O)C1CC1` [243 B], the pIC50 was < 6.00. For `CCC(=O)c1cc([C@]2(c3cccc(-c4cccnc4F)c3)N=C(N)N(C)C2=O)cs1` [244 A], the pIC50 was 7.00 to 8.00. For `CCC(=O)c1cc([C@@]2(c3cccc(-c4cccnc4F)c3)N=C(N)N(C)C2=O)cs1` [244 B], the pIC50 was 6.00 to 6.96. In the case of `CC(=O)c1cc([C@]2(c3ccccc3)N=C(N)N(C)C2=O)cn1C` [249 A], the pIC50 was < 6.00. With `CC(=O)c1cc([C@@]2(c3ccccc3)N=C(N)N(C)C2=O)cn1C` [249 B] the pIC50 was < 6.00. `CCC(=O)c1cc([C@]2(c3cccc(-c4cccnc4F)c3)N=C(N)N(C)C2=O)cn1CCCCF` [250 A] was tested, and the pIC50 was 7.00 to 8.00. With `CCC(=O)c1cc([C@@]2(c3cccc(-c4cccnc4F)c3)N=C(N)N(C)C2=O)cn1CCCCF` [250 B] the pIC50 was < 6.00. With `CCC(=O)c1cc([C@]2(c3cccc(-c4cccnc4F)c3)N=C(N)N(C)C2=O)cn1CC1CC1` [251 A] the pIC50 was 7.00 to 8.00. `CCC(=O)c1cc([C@@]2(c3cccc(-c4cccnc4F)c3)N=C(N)N(C)C2=O)cn1CC1CC1` [251 B] was tested, and the pIC50 was < 6.00. `CCC(=O)c1cc([C@]2(c3cccc(-c4cccnc4F)c3)N=C(N)N(C)C2=O)cn1CCCC(F)(F)F` [252 A] gave a pIC50 of 7.00 to 8.00. With `CCC(=O)c1cc([C@@]2(c3cccc(-c4cccnc4F)c3)N=C(N)N(C)C2=O)cn1CCCC(F)(F)F` [252 B] the pIC50 was < 6.00. `CCC(=O)c1cc([C@]2(c3cccc(-c4cccnc4F)c3)N=C(N)N(C)C2=O)cn1CC(F)F` [253 A] gave a pIC50 of 7.00 to 8.00. `CCC(=O)c1cc([C@@]2(c3cccc(-c4cccnc4F)c3)N=C(N)N(C)C2=O)cn1CC(F)F` [253 B] was tested, and the pIC50 was < 6.00. `CCCn1cc([C@]2(c3cccc(-c4cccnc4F)c3)N=C(N)N(C)C2=O)cc1C(=O)CC` [254 A] gave a pIC50 of 7.00 to 8.00. `CCCn1cc([C@@]2(c3cccc(-c4cccnc4F)c3)N=C(N)N(C)C2=O)cc1C(=O)CC` [254 B] was tested, and the pIC50 was < 6.00. `CCC(=O)c1cc([C@]2(c3cccc(-c4cccnc4F)c3)N=C(N)N(C)C2=O)cn1CCCF` [255 A] was tested, and the pIC50 was 7.00 to 8.00. For `CCC(=O)c1cc([C@@]2(c3cccc(-c4cccnc4F)c3)N=C(N)N(C)C2=O)cn1CCCF` [255 B], the pIC50 was < 6.00. In the case of `CCC(=O)c1cc([C@]2(c3cccc(-c4cccnc4F)c3)N=C(N)N(C)C2=O)cn1CCF` [256 A], the pIC50 was 7.00 to 8.00. `CCC(=O)c1cc([C@@]2(c3cccc(-c4cccnc4F)c3)N=C(N)N(C)C2=O)cn1CCF` [256 B] was tested, and the pIC50 was < 6.00. With `COC(=O)c1cc([C@]2(c3cccc(-c4cccnc4F)c3)N=C(N)N(C)C2=O)cn1CCF` [257 A] the pIC50 was 7.00 to 8.00. `COC(=O)c1cc([C@@]2(c3cccc(-c4cccnc4F)c3)N=C(N)N(C)C2=O)cn1CCF` [257 B] showed a pIC50 of 6.00 to 6.96. `COC(=O)c1cc([C@]2(c3ccc(F)c(-c4cncnc4)c3)N=C(N)N(C)C2=O)cn1CC(F)(F)F` [258 A] was tested, and the pIC50 was 7.00 to 8.00. `COC(=O)c1cc([C@@]2(c3ccc(F)c(-c4cncnc4)c3)N=C(N)N(C)C2=O)cn1CC(F)(F)F` [258 B] was tested, and the pIC50 was < 6.00. With `CN1C(=O)C(c2cccc(-c3cncnc3)c2)(c2cnn(C)c2)N=C1N` (stereo not drawn) [Example 1, 2-Amino-3-methyl-5-(1-methyl-1H-pyrazol-4-yl)-5-(3-pyrimidin-5-ylphenyl)-3,5-dihydro-4-imidazol-4-one] the pIC50 was 6.00 to 6.96. Work on `COc1ncccc1-c1cc(C2(c3ccsc3)N=C(N)N(C)C2=O)ccc1F` (stereo not drawn) [Example 38] yielded a pIC50 of 6.00 to 6.96. `CN1C(=O)C(c2ccsc2)(c2ccc(F)c(-c3cccnc3F)c2)N=C1N` (stereo not drawn) [Example 39] showed a pIC50 of 7.00 to 8.00. `CN1C(=O)C(c2ccsc2)(c2ccc(F)c(-c3cccnc3)c2)N=C1N` (stereo not drawn) [Example 40] gave a pIC50 of 7.00 to 8.00. `CCn1cc(C2(c3cncnc3)N=C(N)N(C)C2=O)cn1` (stereo not drawn) [Example 42, 2-Amino-5-(1-ethyl-1H-pyrazol-4-yl)-3-methyl-5-(3-pyrimidin-5-yl)-3,5-dihydro-4H-imidazol-4-one] gave a pIC50 of 7.00 to 8.00. Molecule `CCn1cc(C2(c3cccc(-c4cccnc4F)c3)N=C(N)N(C)C2=O)cn1` (stereo not drawn) [Example 43, 2-Amino-5-(1-ethyl-1H-pyrazol-4-yl)-5-[3-(2-fluoro-pyridin-3-yl)-phenyl]-3-methyl-3,5-dihydro-imidazol-4-one] has a pIC50 of 7.00 to 8.00. For `CCn1cc([C@@]2(c3cccc(-c4cccnc4F)c3)N=C(N)N(C)C2=O)cn1` [Example 44A, (5R)-2-Amino-5-(1-ethyl-1H-pyrazol-4-yl)-5-[3-(2-fluoropyridin-3-yl)phenyl]-3-methyl-3,5-dihydro-4H-imidazol-4-one], the pIC50 was < 6.00. `CCn1cc([C@]2(c3cccc(-c4cccnc4F)c3)N=C(N)N(C)C2=O)cn1` [Example 44B, (5S)-2-Amino-5-(1-ethyl-1H-pyrazol-4-yl)-5-[3-(2-fluoropyridin-3-yl)phenyl]-3-methyl-3,5-dihydro-4H-imidazol-4-one] showed a pIC50 of 7.00 to 8.00. `CCn1cc(C2(c3cccc(-c4cncc(F)c4)c3)N=C(N)N(C)C2=O)cn1` (stereo not drawn) [Example 45, 2-Amino-5-(1-ethyl-1H-pyrazol-4-yl)-5-[3-(5-fluoro-pyridin-3-yl)-phenyl]-3-methyl-3,5-dihydro-imidazol-4-one] gave a pIC50 of 7.00 to 8.00. In the case of `CCn1cc(C2(c3cccc(-c4cncc(Cl)c4)c3)N=C(N)N(C)C2=O)cn1` (stereo not drawn) [Example 46, 2-Amino-5-[3-(5-chloropyridin-3-yl)phenyl]-5-(1-ethyl-1H-pyrazol-4-yl)-3-methyl-3,5-dihydro-imidazol-4-one], the pIC50 was 7.00 to 8.00. `CC(C)n1cc(C#Cc2ccc(F)c(Br)c2)cn1` [Example 94, 4-(3-bromo-4-fluorophenylethynyl)-1-isopropyl-1H-pyrazole] showed a pIC50 of 7.00 to 8.00. For `CCCCc1ccc(C2(c3ccccc3)N=C(N)N(C)C2=O)s1` (stereo not drawn) [Example 109, 2-Amino-5-(5-butylthien-2-yl)-3-methyl-5-phenyl-3,5-dihydro-4H-imidazol-4-one], the pIC50 was < 6.00. In the case of `COc1ccc(C2(c3cc(-c4ccc(F)cc4)cs3)N=C(N)N(C)C2=O)cc1C` (stereo not drawn) [Example 111, 2-Amino-5-[4-(4-fluorophenyl)thien-2-yl]-5-(4-methoxy-3-methylphenyl)-3-methyl-3,5-dihydro-4H-imidazol-4-one], the pIC50 was 6.00 to 6.96. `CCC(=O)c1cc(C2(c3cccc(Br)c3)N=C(N)N(C)C2=O)cn1CCF` (stereo not drawn) [Example 150, 2-Amino-5-[3-bromophenyl]-5-[1-(2-fluoroethyl)-5-propionyl-1H-pyrrol-3-yl)-3-methyl-3,5-dihydro-4H-imidazol-4-one] showed a pIC50 of 6.00 to 6.96. `CCC(=O)c1cc(C2(c3cccc(-c4cc(F)cnc4F)c3)N=C(N)N(C)C2=O)cn1CCF` (stereo not drawn) [Example 151, 2-Amino-5-[3-(2,5-difluoropyridin-3-yl)phenyl]-5-[1-(2-fluoro-ethyl)-5-propionyl-1H-pyrrol-3-yl)-3-methyl-3,5-dihydro-4H-imidazol-4-one] was tested, and the pIC50 was 7.00 to 8.00. `CCC(=O)c1cc(C2(c3cccc(-c4cccnc4F)c3)N=C(N)N(C)C2=O)cn1CCC(C)C` (stereo not drawn) [Example 153] showed a pIC50 of 7.00 to 8.00. Molecule `CCC(=O)c1cc(C2(c3cccc(-c4cccnc4F)c3)N=C(N)N(C)C2=O)c[nH]1` (stereo not drawn) [Example 154] has a pIC50 of 7.00 to 8.00. With `CCC(=O)c1cc([C@@]2(c3ccc(F)c(-c4cccnc4F)c3)N=C(N)N(C)C2=O)cn1CC` [Example 183B, (5R)-2-Amino-5-(1-ethyl-5-propionyl-1H-pyrrol-3-yl)-5-[4-fluoro-3-(2-fluoropyridin-3-yl)phenyl]-3-methyl-3,5-dihydro-4H-imidazol-4-one] the pIC50 was < 6.00. Molecule `COC(=O)c1cc([C@@]2(c3ccc(F)c(-c4cccnc4F)c3)N=C(N)N(C)C2=O)cn1CCF` [Example 184B, Methyl 4-{(4R)-2-amino-4-[4-fluoro-3-(2-fluoropyridin-3-yl)phenyl]-1-methyl-5-oxo-4,5-dihydro-1H-imidazol-4-yl}-1-(2-fluoroethyl)-1H-pyrrole-2-carboxylate] has a pIC50 of 6.00 to 6.96.
